We go through 15 compounds from patent US12415797B2, “Heterocyclic compound as CDK-HDAC double-channel inhibitor” (Hangzhou Innogate Pharma Co., Ltd., priority 2018, dated 2025).

Where two headings read alike, the source gives them in different places. A value given as a limit tells only on which side of the number the result lay.

Assay type in all cases: biochemical
One experiment addresses CDK4/CycD3 (Homo sapiens (Human), UniProt P11802). Briefly: CDK4/CycD3 kinase Mobility Shift Assay. The note with it: CDK4/CycD3 10 nM, ATP Km 221 μM, 180 min, 28° C. As to the method: (§1) In vitro enzymatic activity of the CDK isoforms CDK2/CycA2, CDK4/CycD3 and CDK6/cycD3 were measured using Mobility Shift Assay that monitors phosphorylation ratio of FAM labelled peptide (Peptide 18 for CDK2/CycA2, Peptide 8 for CDK4/CycD3). CDK2/CycA2 and CDK6/CycD3 were assayed under buffer conditions in the presence of 50 mM HEPES (pH 7.5), 10 mM MgCl2, 0.0015% Brij-35 and 2 mM dithiothreitol; CDK4/CycD3 with buffer condition of 20 mM HEPES (pH 7.5), 10 mM MgCl2, 0.01% Triton X-100 and 2 mM dithiothreitol. Prepare compounds to 50× of the final desired highest inhibitor concentration by 100% DMSO and serial dilution in 3-fold for total of 10 concentrations. For each isoform, dosage of enzyme and substrate are CDK2/CycA2 12 nM, ATP Km 39 μM; CDK4/CycD3 10 nM, ATP Km […]; CDK6/cycD3 15 nM, ATP Km 800 μM. After assay for 60 min, 180 min, 60 min respectively at 28° C., reactions were terminated with stop solution (50 mM EDTA, 0.015% Brij-35, 0.2% Coating Reagent #3 and 100 mM HEPES (pH 7.5)). Collect conversion on Caliper EZ Reader. IC50 values were calculated by fitting the dose-response curves with Xlfit excel add-in version 4.3.1.

For the next experiment, the target named is CDK6/cycD3 (Homo sapiens (Human), UniProt Q00534). Briefly: CDK6/cycD3 kinase Mobility Shift Assay. The note with it: CDK6/cycD3 15 nM, ATP Km 800 μM, 60 min, 28° C. As to the method:
as §1

A further experiment has as its target CDK2/CycA2 (Homo sapiens (Human), UniProt P24941). The experiment can be described thus: CDK2/CycA2 kinase Mobility Shift Assay. The settings on record: CDK2/CycA2 12 nM, ATP Km 39 μM, 60 min, 28° C. As to the method: as §1
The next experiment has as its target HDAC-1 (Homo sapiens (Human), UniProt Q13547). The experiment can be described thus: HDAC-1 fluorogenic deacetylase assay (Ac-peptide-AMC). The note with it: recombinant, full-length protein, Ac-peptide-AMC substrate; read-out: HDAC1 (IC50). The method, then:
(§2) The inhibitory effect of compounds on HDAC-1 and HDAC-6 function was determined in vitro using an optimized homogenous assay performed in 384-well plate format. In this assay, the recombinant, full-length HDAC-1, HDAC-2 or HDAC-6 protein (BPS Biosciences) was incubated with Ac-peptide-AMC with concentrations in the Km plot. Reactions were performed in Tris-based assay buffer and were followed for fluorogenic release of 7-amino-4-methylcoumarin from substrate upon deacetylase and trypsin enzymatic activity. Fluorescence measurements were obtained using a multilabel plate reader (Synergy MX with excitation at 355 nm and emission at 460 nm). Data were analyzed on a plate-by-plate basis for the linear range of fluorescence over time. Fit the data in GraphPad Prism V5.0 software to obtain IC50 values using equation (Y=Bottom+(Top-Bottom)/(1+10^((Log IC50−X)*Hill Slope), Y is % inhibition and X is compound concentration).

The target in a further experiment is HDAC-6 (Homo sapiens (Human), UniProt Q9UBN7). Briefly: HDAC-6 fluorogenic deacetylase assay (Ac-peptide-AMC). The settings on record: read-out: HDAC6 (IC5). The method, then:
as §2

[1] abbreviates: recombinant, full-length protein, Ac-peptide-AMC substrate.

Sequence of CDK6/cycD3 (Q00534 whole entry, species assumed): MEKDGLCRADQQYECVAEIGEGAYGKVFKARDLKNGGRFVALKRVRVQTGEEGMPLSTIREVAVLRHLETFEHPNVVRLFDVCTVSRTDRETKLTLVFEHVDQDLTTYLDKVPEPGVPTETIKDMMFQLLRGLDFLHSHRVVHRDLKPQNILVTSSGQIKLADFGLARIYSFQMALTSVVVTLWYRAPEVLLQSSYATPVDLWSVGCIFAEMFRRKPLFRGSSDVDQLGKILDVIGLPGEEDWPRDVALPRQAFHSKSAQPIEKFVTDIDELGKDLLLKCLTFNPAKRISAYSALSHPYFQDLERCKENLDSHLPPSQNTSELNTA
Sequence of CDK6/cycD3 (P30281 whole entry partner, species assumed): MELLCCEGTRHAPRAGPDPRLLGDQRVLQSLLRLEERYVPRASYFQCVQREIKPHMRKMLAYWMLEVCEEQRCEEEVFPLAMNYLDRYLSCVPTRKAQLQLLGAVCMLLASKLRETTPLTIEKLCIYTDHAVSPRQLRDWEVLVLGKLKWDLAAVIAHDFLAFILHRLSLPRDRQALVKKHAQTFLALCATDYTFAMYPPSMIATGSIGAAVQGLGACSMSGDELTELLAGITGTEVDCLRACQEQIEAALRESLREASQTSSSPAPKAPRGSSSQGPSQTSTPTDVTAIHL
Sequence of HDAC-1 (Q13547 whole entry): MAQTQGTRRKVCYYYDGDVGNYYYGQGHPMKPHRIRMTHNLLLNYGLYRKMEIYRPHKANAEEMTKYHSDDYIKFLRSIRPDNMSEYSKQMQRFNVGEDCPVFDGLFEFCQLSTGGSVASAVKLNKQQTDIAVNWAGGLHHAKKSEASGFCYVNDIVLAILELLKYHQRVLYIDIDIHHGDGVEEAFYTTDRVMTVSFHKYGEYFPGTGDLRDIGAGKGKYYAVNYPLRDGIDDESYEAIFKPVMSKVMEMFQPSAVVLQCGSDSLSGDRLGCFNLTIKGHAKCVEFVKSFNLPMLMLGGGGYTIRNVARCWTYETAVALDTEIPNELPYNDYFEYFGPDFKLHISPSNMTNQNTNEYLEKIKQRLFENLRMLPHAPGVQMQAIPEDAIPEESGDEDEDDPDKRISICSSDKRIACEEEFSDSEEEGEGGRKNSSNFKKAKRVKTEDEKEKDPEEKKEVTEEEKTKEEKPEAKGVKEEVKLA
Sequence of CDK4/CycD3 (P11802 whole entry, species assumed, canonical isoform): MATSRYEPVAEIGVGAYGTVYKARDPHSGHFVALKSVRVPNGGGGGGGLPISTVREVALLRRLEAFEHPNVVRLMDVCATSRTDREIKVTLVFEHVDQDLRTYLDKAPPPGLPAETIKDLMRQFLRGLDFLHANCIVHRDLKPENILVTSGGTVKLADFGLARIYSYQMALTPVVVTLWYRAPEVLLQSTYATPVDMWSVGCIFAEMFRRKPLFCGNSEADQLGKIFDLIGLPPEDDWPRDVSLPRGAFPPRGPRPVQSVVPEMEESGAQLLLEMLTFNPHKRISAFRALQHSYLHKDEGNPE
Sequence of CDK4/CycD3 (P30281 whole entry partner, species assumed, canonical isoform): as the sequence (P30281 whole entry partner, species assumed) above
Sequence of HDAC-6 (Q9UBN7 whole entry): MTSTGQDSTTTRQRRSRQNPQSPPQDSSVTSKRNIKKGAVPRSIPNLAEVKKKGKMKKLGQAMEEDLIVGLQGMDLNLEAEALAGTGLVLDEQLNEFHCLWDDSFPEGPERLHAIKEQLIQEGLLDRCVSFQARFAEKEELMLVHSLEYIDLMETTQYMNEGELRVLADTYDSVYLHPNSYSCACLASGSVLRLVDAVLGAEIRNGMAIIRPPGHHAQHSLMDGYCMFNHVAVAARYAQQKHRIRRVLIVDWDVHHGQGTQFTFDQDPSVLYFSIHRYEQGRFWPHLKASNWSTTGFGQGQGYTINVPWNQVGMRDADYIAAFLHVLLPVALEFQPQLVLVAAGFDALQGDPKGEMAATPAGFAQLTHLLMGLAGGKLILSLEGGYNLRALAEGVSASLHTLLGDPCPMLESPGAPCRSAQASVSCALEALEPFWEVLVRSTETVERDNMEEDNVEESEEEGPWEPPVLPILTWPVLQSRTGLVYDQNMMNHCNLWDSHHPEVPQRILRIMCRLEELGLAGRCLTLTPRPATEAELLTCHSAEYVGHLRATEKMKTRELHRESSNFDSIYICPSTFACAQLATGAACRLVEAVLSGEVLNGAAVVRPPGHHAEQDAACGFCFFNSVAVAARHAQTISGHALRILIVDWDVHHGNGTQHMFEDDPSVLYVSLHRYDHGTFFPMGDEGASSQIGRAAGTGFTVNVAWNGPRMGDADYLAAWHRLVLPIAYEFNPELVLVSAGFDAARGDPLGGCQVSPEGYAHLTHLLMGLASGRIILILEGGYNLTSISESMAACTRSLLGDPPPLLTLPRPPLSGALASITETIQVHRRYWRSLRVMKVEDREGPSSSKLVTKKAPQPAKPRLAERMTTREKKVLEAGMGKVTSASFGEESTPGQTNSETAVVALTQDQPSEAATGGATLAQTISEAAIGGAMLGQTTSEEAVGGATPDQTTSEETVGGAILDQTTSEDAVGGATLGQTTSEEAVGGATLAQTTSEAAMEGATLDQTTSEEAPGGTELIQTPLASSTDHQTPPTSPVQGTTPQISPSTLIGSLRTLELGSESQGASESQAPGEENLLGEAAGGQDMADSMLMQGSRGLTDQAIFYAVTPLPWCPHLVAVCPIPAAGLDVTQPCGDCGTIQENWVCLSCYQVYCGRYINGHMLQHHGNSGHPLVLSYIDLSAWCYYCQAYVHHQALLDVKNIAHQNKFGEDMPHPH

Take `Cc1nc2c(F)cc(-c3nc(Nc4ccc(CN5CCN(CCCCCCC(=O)NO)CC5)cn4)ncc3F)cc2n1C(C)C` [Compound 1, 7-(4-((6-((5-fluoro-4-(4-fluoro-1-isopropyl-2-methyl-1H-benzo[d]imidazol-6-yl)pyrimidin-2-yl)amino)pyridin-3-yl)methyl)piperazin-1-yl)-N-hydroxyheptanamide]: the IC50 at CDK4/CycD3 was under 10 nM; on CDK6/cycD3, 10 to 100 nM; at CDK2/CycA2 it was 10 to 100 nM; at HDAC-1 it was 100 to 500 nM; on HDAC-6 (setting [1]), 10 to 100 nM.
On to `Cc1nc2c(F)cc(-c3nc(Nc4ccc(N(C)CCN(C)c5ncc(C(=O)NO)cn5)cn4)ncc3F)cc2n1C(C)C` [Compound 2, 2-((2-((6-((5-fluoro-4-(4-fluoro-1-isopropyl-2-methyl-1H-benzo[d]imidazol-6-yl)pyrimidin-2-yl)amino)pyridin-3-yl)(methyl)amino)ethyl)(methyl)amino)-N-hydroxypyrimidine-5-carboxamide], for which the IC50 is under 10 nM on CDK4/CycD3; 10 to 100 nM at CDK6/cycD3; 100 to 500 nM at CDK2/CycA2; under 10 nM on HDAC-1; 10 to 100 nM at HDAC-6 (setting [1]).
On to `Cc1nc2c(F)cc(-c3nc(Nc4ccc(N(C)CCCCCCC(=O)NO)cn4)ncc3F)cc2n1C(C)C` [Compound 3, 7-((6-((5-fluoro-4-(4-fluoro-1-isopropyl-2-methyl-1H-benzo[d]imidazol-6-yl)pyrimidin-2-yl)amino)pyridin-3-yl)(methyl)amino)-N-hydroxyheptanamide], for which the IC50 at CDK4/CycD3 is under 10 nM; at CDK6/cycD3, 10 to 100 nM; at CDK2/CycA2, 10 to 100 nM; on HDAC-1 it was 10 to 100 nM; at HDAC-6 (setting [1]), 10 to 100 nM.
Take `Cc1nc2c(F)cc(-c3nc(Nc4ccc(C(=O)NO)cn4)ncc3F)cc2n1C(C)C` [Compound 4, 6-((5-fluoro-4-(4-fluoro-1-isopropyl-2-methyl-1H-benzo[d]imidazol-6-yl)pyrimidin-2-yl)amino)-N-hydroxynicotinamide]: the IC50 was under 10 nM at CDK4/CycD3; 100 to 500 nM on CDK6/cycD3; 100 to 500 nM on CDK2/CycA2; 100 to 500 nM on HDAC-1; under 10 nM on HDAC-6.
Consider `Cc1nc2c(F)cc(-c3nc(Nc4ccc(/C=C/C(=O)NO)cn4)ncc3F)cc2n1C(C)C` [Compound 5, (E)-3-(6-((5-fluoro-4-(4-fluoro-1-isopropyl-2-methyl-1H-benzo[d]imidazol-6-yl)pyrimidin-2-yl)amino)pyridin-3-yl)-N-hydroxyacrylamide], for which the IC50 at CDK4/CycD3 is under 10 nM; on CDK6/cycD3, 100 to 500 nM; at CDK2/CycA2 it was 10 to 100 nM; on HDAC-1, at least 1000 nM; on HDAC-6 (setting [1]), 10 to 100 nM.
In the case of `Cc1nc2c(F)cc(-c3nc(Nc4ccc(N(C)Cc5ccc(C(=O)NO)cc5)cn4)ncc3F)cc2n1C(C)C` [Compound 6, 4-(((6-((5-fluoro-4-(4-fluoro-1-isopropyl-2-methyl-1H-benzo[d]imidazol-6-yl)pyrimidin-2-yl)amino)pyridin-3-yl)(methyl)amino)methyl)-N-hydroxybenzamide], the IC50 was under 10 nM on CDK4/CycD3; 10 to 100 nM at CDK6/cycD3; under 10 nM at CDK2/CycA2; 100 to 500 nM at HDAC-1; 10 to 100 nM on HDAC-6 (setting [1]).
`Cc1nc2c(F)cc(-c3nc(Nc4ccc(N(C)Cc5ccc(/C=C/C(=O)NO)cc5)cn4)ncc3F)cc2n1C(C)C` [Compound 7, (E)-3-(4-(((6-((5-fluoro-4-(4-fluoro-1-isopropyl-2-methyl-1H-benzo[d]imidazol-6-yl)pyrimidin-2-yl)amino)pyridin-3-yl)(methyl)amino)methyl)phenyl)-N-hydroxyacrylamide]: the IC50 on CDK4/CycD3 lay within 10 to 100 nM; on CDK6/cycD3 it was 500 to 1000 nM; on CDK2/CycA2, 100 to 500 nM; at HDAC-1 it was 100 to 500 nM; on HDAC-6 (setting [1]), 10 to 100 nM.
On to `Cc1nc2c(F)cc(-c3nc(Nc4ccc(N5CCN(Cc6ccc(C(=O)NO)cc6)CC5)cn4)ncc3F)cc2n1C(C)C` [Compound 8, 4-((4-(6-((5-fluoro-4-(4-fluoro-1-isopropyl-2-methyl-1H-benzo[d]imidazol-6-yl)pyrimidin-2-yl)amino)pyridin-3-yl)piperazin-1-yl)methyl)-N-hydroxybenzamide], for which the IC50 at CDK4/CycD3 was under 10 nM; at CDK6/cycD3 it was 10 to 100 nM; on CDK2/CycA2, 10 to 100 nM; on HDAC-1, 10 to 100 nM; at HDAC-6, under 10 nM.
With `Cc1nc2c(F)cc(-c3nc(Nc4ccc(N5CCN(CCCCCCC(=O)NO)CC5)cn4)ncc3F)cc2n1C(C)C` [Compound 9, 7-(4-(6-((5-fluoro-4-(4-fluoro-1-isopropyl-2-methyl-1H-benzo[d]imidazol-6-yl)pyrimidin-2-yl)amino)pyridin-3-yl)piperazin-1-yl)-N-hydroxyheptanamide], the IC50 is under 10 nM at CDK4/CycD3; 10 to 100 nM at CDK6/cycD3; 10 to 100 nM at CDK2/CycA2; at least 1000 nM at HDAC-1; under 10 nM on HDAC-6.
Take `Cc1nc2c(F)cc(-c3nc(Nc4ccc(N5CCN(C(=O)CCCCCCC(=O)NO)CC5)cn4)ncc3F)cc2n1C(C)C` [Compound 10, 8-(4-(6-((5-fluoro-4-(4-fluoro-1-isopropyl-2-methyl-1H-benzo[d]imidazol-6-yl)pyrimidin-2-yl)amino)pyridin-3-yl)piperazin-1-yl)-N-hydroxy-8-oxooctanamide]: the IC50 is under 10 nM on CDK4/CycD3; under 10 nM on CDK6/cycD3; 10 to 100 nM on CDK2/CycA2; 100 to 500 nM at HDAC-1; under 10 nM on HDAC-6.
On to `Cc1nc2c(F)cc(-c3nc(Nc4ccc(C(=O)NO)nc4)ncc3F)cc2n1C(C)C` [Compound 11, 5-((5-fluoro-4-(4-fluoro-1-isopropyl-2-methyl-1H-benzo[d]imidazol-6-yl)pyrimidin-2-yl)amino)-N-hydroxypicolinamide], for which the IC50 is under 10 nM on CDK4/CycD3; 10 to 100 nM at CDK6/cycD3; under 10 nM at CDK2/CycA2; at least 1000 nM at HDAC-1; at least 1000 nM at HDAC-6 (setting [1]).
With `Cc1nc2c(F)cc(-c3nc(Nc4cc(C(=O)NO)ccn4)ncc3F)cc2n1C(C)C` [Compound 12, 2-((5-fluoro-4-(4-fluoro-1-isopropyl-2-methyl-1H-benzo[d]imidazol-6-yl)pyrimidin-2-yl)amino)-N-hydroxyisonicotinamide], the IC50 at CDK4/CycD3 was 10 to 100 nM; at CDK6/cycD3 it was at least 1000 nM; at CDK2/CycA2, 10 to 100 nM; on HDAC-1 it was 100 to 500 nM; at HDAC-6 (setting [1]) it was 10 to 100 nM.
With `Cc1nc2c(F)cc(-c3nc(Nc4ccc(N5CCN(CCCCC(=O)NO)CC5)cn4)ncc3F)cc2n1C(C)C` [Compound 13, 5-(4-(6-((5-fluoro-4-(4-fluoro-1-isopropyl-2-methyl-1H-benzo[d]imidazol-6-yl)pyrimidin-2-yl)amino)pyridin-3-yl)piperazin-1-yl)-N-hydroxypentanamide], the IC50 is under 10 nM at CDK4/CycD3; under 10 nM at CDK6/cycD3; 10 to 100 nM at CDK2/CycA2; at least 1000 nM on HDAC-1; 10 to 100 nM at HDAC-6 (setting [1]).
Turning to `Cc1nc2c(F)cc(-c3nc(Nc4ccc(N5CCN(CCC(=O)NO)CC5)cn4)ncc3F)cc2n1C(C)C` [Compound 14, 3-(4-(6-((5-fluoro-4-(4-fluoro-1-isopropyl-2-methyl-1H-benzo[d]imidazol-6-yl)pyrimidin-2-yl)amino)pyridin-3-yl)piperazin-1-yl)-N-hydroxypropanamide], the IC50 on CDK4/CycD3 was under 10 nM; at CDK6/cycD3, 10 to 100 nM; on CDK2/CycA2, 10 to 100 nM; on HDAC-1 it was at least 1000 nM; at HDAC-6 (setting [1]), 500 to 1000 nM.
`Cc1nc2c(F)cc(-c3nc(Nc4ccc(C#CC(=O)NO)cn4)ncc3F)cc2n1C(C)C` [Compound 17, 3-(6-((5-fluoro-4-(4-fluoro-1-isopropyl-2-methyl-1H-benzo[d]imidazol-6-yl)pyrimidin-2-yl)amino)pyridin-3-yl)-N-hydroxypropiolamide]: the IC50 on CDK4/CycD3 was under 10 nM.
